Source: PMC8765783, “Identification of the potential active site of the septal peptidoglycan polymerase FtsW” (PLoS Genetics, 2022)
pKd: −log10 of the molar value.

What was measured:
Assay in all cases: fluorescence anisotropy
Assay type in all cases: binding
Settings in all cases: 50 mM Hepes pH 7.5, 0.1 M NaCl, 0.005% DDM, 0.2% CHAPS, 21°C, 0.33 μM probe; labelled compound
[1] = biological target: T1, HisFtsW-FtsI(PBP3) complex (FtsW-FtsI/PBP3, "W 3") (Escherichia coli, UniProt P0ABG4, A135T)
T1 construct: His-tagged FtsW co-expressed with untagged FtsI/PBP3 from pDML2041 in E. coli C43(DE3); DDM-solubilised membranes, HisTrap, G25 desalting; tag kept; with Peptidoglycan D,D-transpeptidase FtsI
T1 sequence (P0ABG4 1-414 A135T): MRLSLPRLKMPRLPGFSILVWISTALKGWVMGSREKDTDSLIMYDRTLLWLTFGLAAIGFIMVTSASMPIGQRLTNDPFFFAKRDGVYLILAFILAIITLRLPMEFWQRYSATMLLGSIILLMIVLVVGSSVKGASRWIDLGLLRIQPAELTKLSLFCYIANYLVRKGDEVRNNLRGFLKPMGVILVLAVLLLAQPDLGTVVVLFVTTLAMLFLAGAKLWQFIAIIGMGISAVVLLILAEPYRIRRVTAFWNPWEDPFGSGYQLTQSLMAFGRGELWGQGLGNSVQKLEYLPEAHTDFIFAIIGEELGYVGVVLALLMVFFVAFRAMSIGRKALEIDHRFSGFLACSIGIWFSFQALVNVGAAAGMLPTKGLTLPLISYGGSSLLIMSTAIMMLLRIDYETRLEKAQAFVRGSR
T1 sequence (P0AD68 1-577 partner): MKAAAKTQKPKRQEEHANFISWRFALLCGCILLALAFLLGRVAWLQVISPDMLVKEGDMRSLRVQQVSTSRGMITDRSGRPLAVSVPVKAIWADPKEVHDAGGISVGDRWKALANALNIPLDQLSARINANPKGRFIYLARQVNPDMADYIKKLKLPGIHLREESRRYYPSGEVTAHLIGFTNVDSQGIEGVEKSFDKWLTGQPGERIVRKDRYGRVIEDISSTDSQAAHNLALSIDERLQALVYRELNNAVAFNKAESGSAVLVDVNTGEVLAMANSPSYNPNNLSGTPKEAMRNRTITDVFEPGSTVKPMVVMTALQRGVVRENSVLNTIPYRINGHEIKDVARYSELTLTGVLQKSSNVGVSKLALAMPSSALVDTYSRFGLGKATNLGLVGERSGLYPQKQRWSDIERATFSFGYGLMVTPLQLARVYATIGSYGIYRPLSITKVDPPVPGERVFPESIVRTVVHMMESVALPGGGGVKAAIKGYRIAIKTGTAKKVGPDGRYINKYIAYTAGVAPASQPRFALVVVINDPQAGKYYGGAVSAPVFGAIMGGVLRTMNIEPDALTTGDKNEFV
Description: (§1) fluorescence anisotropy on HisFtsW-FtsI(PBP3) complex (FtsW-FtsI/PBP3, "W 3")

[2] = biological target: T2, HisFtsW-FtsI(PBP3) complex (FtsW-FtsI/PBP3, "W 3") (Escherichia coli, UniProt P0ABG4, G199A)
T2 construct: His-tagged FtsW co-expressed with untagged FtsI/PBP3 from pDML2041 in E. coli C43(DE3); DDM-solubilised membranes, HisTrap, G25 desalting; tag kept; with Peptidoglycan D,D-transpeptidase FtsI
T2 sequence (P0ABG4 1-414 G199A): T1 sequence (P0ABG4 1-414 A135T)
T2 sequence (P0AD68 1-577 partner): T1 sequence (P0AD68 1-577 partner)
Description: as §1

[3] = biological target: T3, HisFtsW-FtsI(PBP3) complex (FtsW-FtsI/PBP3, "W 3") (Escherichia coli, UniProt P0ABG4, G371S)
T3 construct: His-tagged FtsW co-expressed with untagged FtsI/PBP3 from pDML2041 in E. coli C43(DE3); DDM-solubilised membranes, HisTrap, G25 desalting; tag kept; with Peptidoglycan D,D-transpeptidase FtsI
T3 sequence (P0ABG4 1-414 G371S): T1 sequence (P0ABG4 1-414 A135T)
T3 sequence (P0AD68 1-577 partner): T1 sequence (P0AD68 1-577 partner)
Description: as §1

[4] = biological target: T4, HisFtsW-FtsI(PBP3) complex (FtsW-FtsI/PBP3, "W 3") (Escherichia coli, UniProt P0ABG4, R243L)
T4 construct: His-tagged FtsW co-expressed with untagged FtsI/PBP3 from pDML2041 in E. coli C43(DE3); DDM-solubilised membranes, HisTrap, G25 desalting; tag kept; with Peptidoglycan D,D-transpeptidase FtsI
T4 sequence (P0ABG4 1-414 R243L): T1 sequence (P0ABG4 1-414 A135T)
T4 sequence (P0AD68 1-577 partner): T1 sequence (P0AD68 1-577 partner)
Description: as §1

[5] = biological target: T5, HisFtsW-FtsI(PBP3) complex (FtsW-FtsI/PBP3, "W 3") (Escherichia coli, UniProt P0ABG4, D297A)
T5 construct: His-tagged FtsW co-expressed with untagged FtsI/PBP3 from pDML2041 in E. coli C43(DE3); DDM-solubilised membranes, HisTrap, G25 desalting; tag kept; with Peptidoglycan D,D-transpeptidase FtsI
T5 sequence (P0ABG4 1-414 D297A): T1 sequence (P0ABG4 1-414 A135T)
T5 sequence (P0AD68 1-577 partner): T1 sequence (P0AD68 1-577 partner)
Description: as §1

[6] = biological target: T6, HisFtsW-FtsI(PBP3) complex (FtsW-FtsI/PBP3, "W 3") (Escherichia coli, UniProt P0ABG4, W138A)
T6 construct: His-tagged FtsW co-expressed with untagged FtsI/PBP3 from pDML2041 in E. coli C43(DE3); DDM-solubilised membranes, HisTrap, G25 desalting; tag kept; with Peptidoglycan D,D-transpeptidase FtsI
T6 sequence (P0ABG4 1-414 W138A): T1 sequence (P0ABG4 1-414 A135T)
T6 sequence (P0AD68 1-577 partner): T1 sequence (P0AD68 1-577 partner)
Description: as §1

[7] = biological target: T7, HisFtsW-FtsI(PBP3) complex (FtsW-FtsI/PBP3, "W 3") (Escherichia coli, UniProt P0ABG4, Y242H)
T7 construct: His-tagged FtsW co-expressed with untagged FtsI/PBP3 from pDML2041 in E. coli C43(DE3); DDM-solubilised membranes, HisTrap, G25 desalting; tag kept; with Peptidoglycan D,D-transpeptidase FtsI
T7 sequence (P0ABG4 1-414 Y242H): T1 sequence (P0ABG4 1-414 A135T)
T7 sequence (P0AD68 1-577 partner): T1 sequence (P0AD68 1-577 partner)
Description: as §1

[8] = biological target: T8, HisFtsW-FtsI(PBP3) complex (FtsW-FtsI/PBP3, "W 3") (Escherichia coli, UniProt P0ABG4, G381D)
T8 construct: His-tagged FtsW co-expressed with untagged FtsI/PBP3 from pDML2041 in E. coli C43(DE3); DDM-solubilised membranes, HisTrap, G25 desalting; tag kept; with Peptidoglycan D,D-transpeptidase FtsI
T8 sequence (P0ABG4 1-414 G381D): T1 sequence (P0ABG4 1-414 A135T)
T8 sequence (P0AD68 1-577 partner): T1 sequence (P0AD68 1-577 partner)
Description: as §1

[9] = biological target: T9, HisFtsW-FtsI(PBP3) complex (FtsW-FtsI/PBP3, "W 3") (Escherichia coli, UniProt P0ABG4, Q147E)
T9 construct: His-tagged FtsW co-expressed with untagged FtsI/PBP3 from pDML2041 in E. coli C43(DE3); DDM-solubilised membranes, HisTrap, G25 desalting; tag kept; with Peptidoglycan D,D-transpeptidase FtsI
T9 sequence (P0ABG4 1-414 Q147E): T1 sequence (P0ABG4 1-414 A135T)
T9 sequence (P0AD68 1-577 partner): T1 sequence (P0AD68 1-577 partner)
Description: as §1

[10] = biological target: T10, HisFtsW-FtsI(PBP3) complex (FtsW-FtsI/PBP3, "W 3") (Escherichia coli, UniProt P0ABG4, P196T)
T10 construct: His-tagged FtsW co-expressed with untagged FtsI/PBP3 from pDML2041 in E. coli C43(DE3); DDM-solubilised membranes, HisTrap, G25 desalting; tag kept; with Peptidoglycan D,D-transpeptidase FtsI
T10 sequence (P0ABG4 1-414 P196T): T1 sequence (P0ABG4 1-414 A135T)
T10 sequence (P0AD68 1-577 partner): T1 sequence (P0AD68 1-577 partner)
Description: as §1

[11] = biological target: T11, HisFtsW-FtsI(PBP3) complex (FtsW-FtsI/PBP3, "W 3") (Escherichia coli, UniProt P0ABG4)
T11 construct: His-tagged FtsW co-expressed with untagged FtsI/PBP3 from pDML2041 in E. coli C43(DE3); DDM-solubilised membranes, HisTrap, G25 desalting; tag kept; with Peptidoglycan D,D-transpeptidase FtsI
T11 sequence (P0ABG4 1-414): T1 sequence (P0ABG4 1-414 A135T)
T11 sequence (P0AD68 1-577 partner): T1 sequence (P0AD68 1-577 partner)

SMILES: CC(=O)N[C@H]1[C@H](O[C@H]2[C@H](O[C@H](C)C(=O)N[C@@H](C)C(=O)N[C@H](CCC(=O)N[C@@H](CCCCNc3ccc([N+](=O)[O-])c4nonc34)C(=O)N[C@H](C)C(=O)N[C@H](C)C(=O)O)C(=O)O)[C@@H](NC(C)=O)[C@@H](OP(=O)(O)OP(=O)(O)OC/C=C(/C)CC/C=C(/C)CC/C=C(/C)CC/C=C(/C)CC/C=C(/C)CC/C=C(/C)CC/C=C(/C)CC/C=C(/C)CC/C=C(\C)CC/C=C(\C)CCC=C(C)C)O[C@@H]2CO)O[C@H](CO)[C@@H](O)[C@@H]1O [NBD-lipid II]
- pKd [1]: 7.22
- pKd [2]: 6.96
- pKd [3]: 7.30
- pKd [4]: 7.15
- pKd [5]: 7.05
- pKd [6]: 7.22
- pKd [7]: 7.40
- pKd [8]: 7.00
- pKd [9]: 7.15
- pKd [10]: 7.22
- pKd [11]: 6.89
